Source: PubChem BioAssay (NCI)
Where “and” joins values, the source holds several entries; their conditions need not be identical. Identical values can stand only once.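 Step 1: Grow cells in 96-well plates. Step 2: Expose to compound for 48 hours at 5 concentrations. Step 3: Interpolate endpoints linearly; if unreached, use highest concentration. GI50: concentration for 50% inhibition of growth. TGI: total growth inhibition.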

Legend:
Experiment in all cases: inhibition of tumour cell growth, NCI panel, 48 h
OVCAR-3 ovarian = test system: OVCAR-3 ovarian
HOP-92 NSCLC = test system: HOP-92 NSCLC
SK-MEL-5 melanoma = test system: SK-MEL-5 melanoma
NCI-H226 lung = test system: NCI-H226 lung
DU-145 prostate = test system: DU-145 prostate
NCI-H23 lung = test system: NCI-H23 lung
MOLT-4 leukemia = test system: MOLT-4 leukemia
CAKI-1 renal = test system: CAKI-1 renal
CCRF-CEM leukemia = test system: CCRF-CEM leukemia
MDA-MB-435 = test system: MDA-MB-435

SMILES: N/C(=N\S(=O)(=O)c1ccc(S(=O)(=O)c2ccccc2)s1)Nc1ccc(Cl)cc1
- TGI (OVCAR-3 ovarian): 79.6 µM
- TGI (HOP-92 NSCLC): 39.1 µM
- TGI (SK-MEL-5 melanoma): 32.5 µM
- TGI (NCI-H226 lung): 88.6 µM
- TGI (DU-145 prostate): 55.3 µM
- TGI (NCI-H23 lung): 90.4 µM
- TGI (MOLT-4 leukemia): 59.6 µM

SMILES: Cc1c(Cl)c2ccccc2n1S(=O)(=O)c1ccccc1
- TGI (CAKI-1 renal): > 100 µM
- TGI (OVCAR-3 ovarian): > 100 µM
- TGI (HOP-92 NSCLC): 54.2 µM
- TGI (SK-MEL-5 melanoma): > 100 µM
- TGI (NCI-H226 lung): > 100 µM
- TGI (CCRF-CEM leukemia): > 100 µM
- TGI (NCI-H23 lung): > 100 µM
- TGI (MOLT-4 leukemia): > 100 µM

SMILES: O=C(c1ccc(Cl)cc1)c1ccc(OCCCOc2ccc(C(=O)c3ccc(Cl)cc3)cc2)cc1
- TGI (CAKI-1 renal): > 100 µM
- TGI (OVCAR-3 ovarian): > 100 µM
- TGI (HOP-92 NSCLC): > 100 µM
- TGI (SK-MEL-5 melanoma): > 100 µM
- TGI (NCI-H226 lung): > 100 µM
- TGI (CCRF-CEM leukemia): > 100 µM
- TGI (NCI-H23 lung): > 100 µM
- TGI (MOLT-4 leukemia): > 100 µM

SMILES: CCSc1sc(=Nc2ccc(N=c3sc(C)c(SC)s3)cc2)sc1-c1ccc(C)cc1
- TGI (CAKI-1 renal): > 100 µM
- TGI (OVCAR-3 ovarian): > 100 µM
- TGI (HOP-92 NSCLC): > 100 µM
- TGI (SK-MEL-5 melanoma): > 100 µM
- TGI (CCRF-CEM leukemia): > 100 µM
- TGI (MDA-MB-435): > 100 µM
- TGI (DU-145 prostate): > 100 µM
- TGI (NCI-H23 lung): > 100 µM
- TGI (MOLT-4 leukemia): > 100 µM

SMILES: CCc1cc(Cc2cc(Cl)c(NC(=O)C(=O)C3NC(=O)NC3=O)c(CC)c2)cc(Cl)c1NC(=O)C(=O)C1NC(=O)NC1=O (configuration not stated)
- TGI (CAKI-1 renal): > 100 µM
- TGI (OVCAR-3 ovarian): > 100 µM
- TGI (HOP-92 NSCLC): > 100 µM
- TGI (SK-MEL-5 melanoma): > 100 µM
- TGI (NCI-H226 lung): > 100 µM
- TGI (CCRF-CEM leukemia): > 100 µM
- TGI (NCI-H23 lung): 72.6 µM
- TGI (MOLT-4 leukemia): > 100 µM

SMILES: N#CC1=C(N)n2c(s/c(=C\c3ccc(Cl)cc3)c2=O)=C(c2nc3ccccc3[nH]2)C1c1ccc(Cl)cc1 (configuration not stated)
- TGI (CAKI-1 renal): 10.7 µM
- TGI (OVCAR-3 ovarian): 3.66 µM
- TGI (HOP-92 NSCLC): 0.954 µM
- TGI (SK-MEL-5 melanoma): 11.3 µM
- TGI (NCI-H226 lung): 3.46 µM
- TGI (CCRF-CEM leukemia): 4.23 µM
- TGI (NCI-H23 lung): 1.58 µM
- TGI (MOLT-4 leukemia): 3.86 µM

SMILES: CCC12CCCN(Cc3ccccc3)C1c1c([nH]c3ccccc13)C(C(=O)OC)C2 (configuration not stated)
- TGI (CAKI-1 renal): > 10 µM
- TGI (OVCAR-3 ovarian): > 10 µM
- TGI (HOP-92 NSCLC): > 10 µM
- TGI (SK-MEL-5 melanoma): > 10 µM
- TGI (CCRF-CEM leukemia): > 10 µM
- TGI (MDA-MB-435): > 10 µM
- TGI (DU-145 prostate): > 10 µM
- TGI (NCI-H23 lung): > 10 µM
- TGI (MOLT-4 leukemia): > 10 µM

SMILES: CCCCC(C#N)(OP1(=O)OC(c2ccccc2)C(C)N1C)c1ccccc1 (configuration not stated)
- TGI (CAKI-1 renal): 42.5 µM
- TGI (OVCAR-3 ovarian): 31 µM
- TGI (HOP-92 NSCLC): 25.8 µM
- TGI (SK-MEL-5 melanoma): 34.2 µM
- TGI (CCRF-CEM leukemia): 40.3 µM
- TGI (MDA-MB-435): 33.2 µM
- TGI (DU-145 prostate): 43.4 µM
- TGI (NCI-H23 lung): 41.9 µM
- TGI (MOLT-4 leukemia): 35.9 µM

SMILES: O=C(/N=C/c1c(O)c2ccccc2oc1=O)Nc1ccccc1
- TGI (CAKI-1 renal): 55.3 µM
- TGI (OVCAR-3 ovarian): > 100 µM
- TGI (HOP-92 NSCLC): > 100 µM
- TGI (SK-MEL-5 melanoma): > 100 µM
- TGI (NCI-H226 lung): > 100 µM
- TGI (CCRF-CEM leukemia): > 100 µM
- TGI (NCI-H23 lung): > 100 µM
- TGI (MOLT-4 leukemia): > 100 µM

SMILES: C[n+]1c(-c2ccc(/C=N/NC(=N)N/N=C/c3ccc(-c4cn5cc(Cl)ccc5[n+]4C)cc3)cc2)cn2cc(Cl)ccc21
- TGI (SK-MEL-5 melanoma): > 100 µM
- TGI (CCRF-CEM leukemia): > 100 µM
- TGI (MDA-MB-435): > 100 µM
- TGI (MOLT-4 leukemia): > 100 µM

SMILES: NC(CCCC(N)P(=O)(O)c1ccccc1)P(=O)(O)c1ccccc1 (configuration not stated)
- TGI (OVCAR-3 ovarian): > 261 µM
- TGI (HOP-92 NSCLC): > 261 µM
- TGI (NCI-H226 lung): > 261 µM
- TGI (CCRF-CEM leukemia): > 261 µM
- TGI (NCI-H23 lung): > 261 µM
- TGI (MOLT-4 leukemia): > 261 µM

SMILES: CCCCC(=O)NS(=NC(=O)c1ccccc1)C(Cl)(Cl)Cl (configuration not stated)
- TGI (OVCAR-3 ovarian): > 100 µM
- TGI (HOP-92 NSCLC): > 100 µM
- TGI (SK-MEL-5 melanoma): > 100 µM
- TGI (NCI-H226 lung): > 100 µM
- TGI (CCRF-CEM leukemia): > 100 µM
- TGI (MDA-MB-435): > 100 µM
- TGI (DU-145 prostate): > 100 µM
- TGI (NCI-H23 lung): > 100 µM
- TGI (MOLT-4 leukemia): > 100 µM

SMILES: CN1CCCC2(CCCc3ccccc32)C1 (configuration not stated)
- TGI (CAKI-1 renal): > 100 µM
- TGI (OVCAR-3 ovarian): > 100 µM
- TGI (HOP-92 NSCLC): > 100 µM
- TGI (SK-MEL-5 melanoma): > 100 µM
- TGI (NCI-H226 lung): > 100 µM
- TGI (CCRF-CEM leukemia): > 100 µM
- TGI (NCI-H23 lung): > 100 µM
- TGI (MOLT-4 leukemia): > 100 µM

SMILES: N#CCc1n[nH]c(Cc2ccccc2)n1
- TGI (CAKI-1 renal): > 100 µM
- TGI (OVCAR-3 ovarian): > 100 µM
- TGI (HOP-92 NSCLC): > 100 µM
- TGI (SK-MEL-5 melanoma): > 100 µM
- TGI (CCRF-CEM leukemia): > 100 µM
- TGI (MDA-MB-435): > 100 µM
- TGI (DU-145 prostate): > 100 µM
- TGI (NCI-H23 lung): > 100 µM
- TGI (MOLT-4 leukemia): > 100 µM

SMILES: Cc1cccc2c(=O)c([Se]c3coc4c(C)cccc4c3=O)coc12
- TGI (CAKI-1 renal): 48.4 µM
- TGI (OVCAR-3 ovarian): 65.6 µM
- TGI (HOP-92 NSCLC): 40.5 µM
- TGI (SK-MEL-5 melanoma): 32.7 µM
- TGI (NCI-H226 lung): 33.1 µM
- TGI (CCRF-CEM leukemia): > 100 µM
- TGI (NCI-H23 lung): 32.2 µM
- TGI (MOLT-4 leukemia): > 100 µM

SMILES: N[C@H](C(=O)O)[C@H]1ON=C(Cl)[C@@H]1O
- GI50 (CAKI-1 renal): 4.06 µM
- TGI (CAKI-1 renal): 205 µM
- GI50 (OVCAR-3 ovarian): 0.449 µM
- TGI (OVCAR-3 ovarian): > 550 µM
- GI50 (HOP-92 NSCLC): 52.2 µM
- TGI (HOP-92 NSCLC): 269 µM
- GI50 (SK-MEL-5 melanoma): 4.39 µM
- TGI (SK-MEL-5 melanoma): > 96.2 µM and 246 µM
- GI50 (NCI-H226 lung): 61.8 µM
- TGI (NCI-H226 lung): > 550 µM
- GI50 (CCRF-CEM leukemia): 5.15 µM
- TGI (CCRF-CEM leukemia): > 246 µM
- GI50 (NCI-H23 lung): 5.09 µM
- TGI (NCI-H23 lung): > 550 µM
- GI50 (MOLT-4 leukemia): 2.48 µM
- TGI (MOLT-4 leukemia): 68 µM

SMILES: Cc1ccc(N2Cc3c(ccc4ccccc34)OP2(=O)Oc2ccc(Cl)c(C)c2)cc1 (configuration not stated)
- TGI (CAKI-1 renal): > 100 µM
- TGI (OVCAR-3 ovarian): > 31.6 µM
- TGI (HOP-92 NSCLC): > 100 µM
- TGI (SK-MEL-5 melanoma): > 100 µM
- TGI (NCI-H226 lung): > 100 µM
- TGI (CCRF-CEM leukemia): > 100 µM
- TGI (NCI-H23 lung): > 100 µM
- TGI (MOLT-4 leukemia): > 100 µM
